From US20190231730A1, “TREATMENT OF A DISEASE MEDIATED BY ARACHIDONIC ACID OR AN EICOSANOID” (priority 2016, published 2019)

Assays:
[1] = system: oesophageal adenocarcinoma; conditions: rat model; LTA4 hydrolase inhibitor, inhibition of LTB4 synthesis; cited from earlier work
[2] = system: patients with Ankylosing Spondylitis; conditions: three patients
patient with psoriasis = test: Topical formulation in patients with psoriasis; conditions: approximately 30 patients
Experimental: (§1) The formulation was applied under arm pits (topically) to patients suffering from Cystic Fibrosis, psoriasis, ulcerative colitis and Ankylosing Spondylitis. Six patients suffering from Cystic fibrosis were administered this formulation once monthly.

[3] = system: patients with ulcerative colitis; conditions: one patient
[4] = system: patients suffering from Cystic Fibrosis; conditions: six patients; topical under arm pits, once monthly; 0.01-1 microgram in DMSO
Experimental: as §1

SMILES	burden of oesophageal adenocarcinoma [1]	symptoms of Ankylosing Spondylitis [2]	duration of symptom-free state in psoriasis (patient with psoriasis)	healing of psoriatic lesions on skin (patient with psoriasis)	decrease in all ulcerative mediations [3]	reversal of symptomatology in ulcerative colitis [3]	clinical benefit and symptoms in Cystic Fibrosis [4]
CC(C)C[C@H](NC(=O)[C@@H](O)[C@H](N)Cc1ccccc1)C(=O)O [bestatin]	reduced the burden of oesophageal adenocarcinoma						
CCCCC/C=C\C/C=C\C/C=C\CC#CCCCC(=O)O [5,6-dehydro arachidonic acid]		helped them with the symptoms	remained symptom free for years	completely healed their psoriatic lesions	100%	100%	significant clinical benefit and reduction of symptoms
